# Data: patent EP4659764A1, “LINKER DRUG, AND PREPARATION METHOD AND USE OF ANTIBODY-DRUG CONJUGATE THEREOF” (Lepu Biopharma Co., Ltd., priority 2023, dated 2024)
# Test system: SKBR3 (breast cancer cell line)
# Assay: In vitro cell killing activity of ADCs, SKBR3
# Type: cell-based
# Conditions: Homo sapiens, SK-BR-3, incubation 72 hours, ADC DAR 8.0
# From the text: Referring to the process of Example 13, the linker-drug conjugate mc-AAN-Exatecan was conjugated to a HER2 antibody, an EGFR antibody, and a non-specific binding antibody (Anti-HEL) respectively to prepare the corresponding ADCs. […] The cell killing activity was detected.
compound,measurement,value
"CC[C@@]1(O)C(=O)OCc2c1cc1n(c2=O)Cc2c-1nc1cc(F)c(C)c3c1c2[C@@H](N)CC3 [Extecan, Exatecan]",IC50,2.02 nM
